Data on four molecules can be found in paper PMC5729109 (Journal of the American Chemical Society, 2017).

Where “and” joins values, the source holds several entries; their conditions need not be identical. Equal entries are not always repeated. Marks after values point to notes of the source that are not given here. *1 amine or outer side, *2 acyl side, *3 side chain or, on linkers, in order; H or OH if unused. Where a SMILES comes first, the peptide text is derived from it. Bridges are numbered along the chain shown (N, C = ends). [ ]: non-standard residue; d: D form. Adda = CO[C@@H](Cc1ccccc1)[C@@H](C)/C=C(C)/C=C/[C@H](N[*:1])[C@H](C)C(=O)[*:2]; dAsp(3S-Me) = C[C@H](C(=O)[*:3])[C@@H](N[*:1])C(=O)[*:2]; d(γGlu) = O=C(O)[C@@H](CCC(=O)[*:2])N[*:1]; NMeDha = C=C(NC)C(=O)O A value given as a limit tells only on which side of the number the result lay.

Experiment [1] has as its system PP1, PP2A, PP4 and PP5. Conditions: cited from earlier work.
Experiment [2] concerns the target T1, PP2A (Homo sapiens, UniProt P67775). Conditions: cited from earlier work.
Experiment [3] has as its system PTP1B. Conditions: tyrosine phosphatase; cited from earlier work.
Experiment [4] relates to HePTP. Conditions: tyrosine phosphatase; cited from earlier work.
Experiment [5] relates to CD45. Conditions: tyrosine phosphatase; cited from earlier work.
In experiment [6] the test system is PPP family members. As to the kind of experiment: In vitro dephosphorylation assays across PPP family members. Type of experiment: biochemical.
The subject of experiment [7] is SHP2. To be noted: tyrosine phosphatase; cited from earlier work.
In experiment [8] the test system is VHR. As to the kind of experiment: Tyrosine phosphatase inhibition, VHR. Type of experiment: biochemical. To be noted: IC50 VHR / IC50 PP1.
The test system of experiment [9] is PTP1B. As to the kind of experiment: Tyrosine phosphatase inhibition, PTP1B. Type of experiment: biochemical. To be noted: IC50 PTP1B / IC50 PP1.
Experiment [10] addresses T2, PP1 (Homo sapiens, UniProt P62136). As to the kind of experiment: [32P]-phosphohistone dephosphorylation assay, PP1. Type of experiment: biochemical.
Experiment [11] has as its target PP1 (Cys127) (Homo sapiens, UniProt P62136). The experiment in a line: ESI mass spectrometry of covalent PP1:TTN adduct, time-course. Type of experiment: binding. Conditions: ESI-MS time-course analysis.
Experiment [12] has as its system HePTP. As to the kind of experiment: Tyrosine phosphatase inhibition, HePTP. Type of experiment: biochemical. Conditions: IC50 HePTP / IC50 PP1.
Experiment [13] relates to PTPα. As to the kind of experiment: Tyrosine phosphatase inhibition, PTPα. Conditions: IC50 PTPα / IC50 PP1. Type of experiment: biochemical.
Experiment [14] concerns Lyp. As to the kind of experiment: Tyrosine phosphatase inhibition, Lyp. Type of experiment: biochemical. To be noted: IC50 Lyp / IC50 PP1.
Experiment [15] deals with SHP1. To be noted: tyrosine phosphatase; cited from earlier work.
Experiment [16] addresses PP2B (Homo sapiens, UniProt Q08209). As to the kind of experiment: DiFMUP dephosphorylation assay, PP2B. Type of experiment: biochemical.
The target of experiment [17] is T2, PP1. The experiment in a line: Lineweaver-Burk kinetic analysis, PP1. Type of experiment: biochemical. To be noted: WT PP1; indicative of irreversible enzyme inhibition; Figure S6.
The target in experiment [18] is PP1 Cys127Ser mutant (C127SPP1) (Homo sapiens, UniProt P62136, C127S). Type of experiment: biochemical.
Chain of PP1 Cys127Ser mutant (C127SPP1) (P62136 whole entry C127S): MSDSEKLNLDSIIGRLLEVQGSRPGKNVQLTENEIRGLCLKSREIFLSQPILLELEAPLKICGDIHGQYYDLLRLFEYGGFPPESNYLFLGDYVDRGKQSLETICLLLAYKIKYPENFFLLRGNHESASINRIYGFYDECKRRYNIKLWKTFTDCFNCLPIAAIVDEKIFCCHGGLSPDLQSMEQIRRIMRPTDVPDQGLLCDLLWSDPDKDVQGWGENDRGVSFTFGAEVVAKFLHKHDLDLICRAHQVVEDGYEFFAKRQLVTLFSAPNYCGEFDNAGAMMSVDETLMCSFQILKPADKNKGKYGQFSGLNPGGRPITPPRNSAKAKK
Experiment [19] relates to Lyp. Conditions: tyrosine phosphatase; cited from earlier work.
The test system of experiment [20] is VHR. Conditions: tyrosine phosphatase; cited from earlier work.
Experiment [21] has as its target PP5 (Homo sapiens, UniProt P53041). The experiment in a line: [32P]-phosphohistone dephosphorylation assay, PP5. Type of experiment: biochemical.
Experiment [22] has as its target T1, PP2A. As to the kind of experiment: [32P]-phosphohistone dephosphorylation assay, PP2A. Type of experiment: biochemical.
The subject of experiment [23] is CD45. The experiment in a line: Tyrosine phosphatase inhibition, CD45. Type of experiment: biochemical. To be noted: IC50 CD45 / IC50 PP1.
Experiment [24] deals with SHP1. As to the kind of experiment: Tyrosine phosphatase inhibition, SHP1. Conditions: IC50 SHP1 / IC50 PP1. Type of experiment: biochemical.
In experiment [25] the test system is CDC14A. The experiment in a line: Tyrosine phosphatase inhibition, CDC14A. Type of experiment: biochemical. To be noted: IC50 CDC14A / IC50 PP1.
Experiment [26] concerns CDC14A. To be noted: tyrosine phosphatase; cited from earlier work.
In experiment [27] the target is PP4 (Homo sapiens, UniProt P60510). As to the kind of experiment: DiFMUP dephosphorylation assay, PP4. Type of experiment: biochemical.
Chain of PP4 (P60510 whole entry): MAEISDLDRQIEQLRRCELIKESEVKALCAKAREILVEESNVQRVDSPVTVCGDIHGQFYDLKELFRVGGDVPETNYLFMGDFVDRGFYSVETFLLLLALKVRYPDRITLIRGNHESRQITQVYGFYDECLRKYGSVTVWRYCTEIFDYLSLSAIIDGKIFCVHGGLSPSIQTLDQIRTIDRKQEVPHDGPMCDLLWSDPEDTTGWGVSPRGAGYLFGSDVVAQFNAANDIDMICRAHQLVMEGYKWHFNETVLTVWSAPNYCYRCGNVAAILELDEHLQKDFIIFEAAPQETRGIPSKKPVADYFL
The target in experiment [28] is PP6 (Homo sapiens, UniProt O00743). As to the kind of experiment: DiFMUP dephosphorylation assay, PP6. Type of experiment: biochemical.
Chain of PP6 (O00743 whole entry): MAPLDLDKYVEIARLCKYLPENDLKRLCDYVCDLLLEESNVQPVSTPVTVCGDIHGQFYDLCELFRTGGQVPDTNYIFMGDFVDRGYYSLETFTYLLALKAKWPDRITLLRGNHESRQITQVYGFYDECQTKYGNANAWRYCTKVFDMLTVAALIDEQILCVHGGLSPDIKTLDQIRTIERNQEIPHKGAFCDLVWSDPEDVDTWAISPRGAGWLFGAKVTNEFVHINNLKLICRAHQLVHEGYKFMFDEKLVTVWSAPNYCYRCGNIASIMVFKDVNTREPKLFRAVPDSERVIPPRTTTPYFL
The test system of experiment [29] is PTPα. Conditions: tyrosine phosphatase; cited from earlier work.
Experiment [30] has as its system SHP2. The experiment in a line: Tyrosine phosphatase inhibition, SHP2. Type of experiment: biochemical. To be noted: IC50 SHP2 / IC50 PP1.

T1 sequence (P67775 whole entry): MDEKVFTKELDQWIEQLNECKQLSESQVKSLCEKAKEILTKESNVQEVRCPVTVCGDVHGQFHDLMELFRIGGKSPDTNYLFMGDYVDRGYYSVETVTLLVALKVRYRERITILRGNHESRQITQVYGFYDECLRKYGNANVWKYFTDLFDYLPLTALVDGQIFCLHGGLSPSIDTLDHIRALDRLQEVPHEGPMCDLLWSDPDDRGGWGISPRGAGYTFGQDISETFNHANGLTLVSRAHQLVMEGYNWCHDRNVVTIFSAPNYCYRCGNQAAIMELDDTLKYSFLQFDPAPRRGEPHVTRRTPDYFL
Chain of PP5 (P53041 whole entry): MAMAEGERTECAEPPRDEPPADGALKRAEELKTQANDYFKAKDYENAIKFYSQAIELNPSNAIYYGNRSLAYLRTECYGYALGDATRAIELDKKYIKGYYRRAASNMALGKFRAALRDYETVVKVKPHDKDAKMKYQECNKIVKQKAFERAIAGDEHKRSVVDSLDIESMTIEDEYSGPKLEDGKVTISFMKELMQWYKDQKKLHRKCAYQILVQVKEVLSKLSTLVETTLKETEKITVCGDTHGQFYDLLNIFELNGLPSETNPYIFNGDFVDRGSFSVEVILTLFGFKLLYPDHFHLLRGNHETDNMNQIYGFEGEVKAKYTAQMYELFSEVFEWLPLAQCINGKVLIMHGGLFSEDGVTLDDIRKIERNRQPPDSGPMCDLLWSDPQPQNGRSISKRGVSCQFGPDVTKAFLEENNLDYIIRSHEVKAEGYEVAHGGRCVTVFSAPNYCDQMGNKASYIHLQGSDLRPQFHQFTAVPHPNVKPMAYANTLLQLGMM
T2 sequence (P62136 whole entry): as the sequence (P62136 whole entry C127S) above, with S127C counted along it
Chain of PP2B (P63098 2-170, other chains not shown): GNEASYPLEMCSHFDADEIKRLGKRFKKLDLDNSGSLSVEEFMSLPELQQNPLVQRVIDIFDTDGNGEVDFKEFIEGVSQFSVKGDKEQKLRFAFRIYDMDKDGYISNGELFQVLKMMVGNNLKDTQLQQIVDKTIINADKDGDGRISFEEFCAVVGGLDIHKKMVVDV
Chain of PP1 (Cys127) (P62136 7-300): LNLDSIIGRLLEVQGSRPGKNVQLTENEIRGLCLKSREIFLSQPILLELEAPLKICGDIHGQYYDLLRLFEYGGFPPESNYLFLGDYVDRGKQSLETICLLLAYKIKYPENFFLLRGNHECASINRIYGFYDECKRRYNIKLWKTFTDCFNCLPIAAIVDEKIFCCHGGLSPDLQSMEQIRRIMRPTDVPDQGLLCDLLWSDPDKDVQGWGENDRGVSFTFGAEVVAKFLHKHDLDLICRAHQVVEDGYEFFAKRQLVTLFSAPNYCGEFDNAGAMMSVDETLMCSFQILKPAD

Take `CO[C@H]([C@H](O)CC(=O)[C@@H](C)[C@@H](O)CC[C@@H](C)[C@@H]1O[C@]2(CC[C@@H](C)[C@H](CC[C@H](C)C(C)=O)O2)CC[C@@H]1C)[C@H](OC(=O)C[C@@H](O)C1=C(C)C(=O)OC1=O)C(C)C` [TTM, tautomycin]: the “Inhibition of PP1, PP2A, PP4 and PP5 compared” value in [1] is given as “to a similar extent”.
Regarding `C[C@@](O)(/C=C/[C@H]1CC=CC(=O)O1)[C@@H](C[C@@H](O)\C=C/C=C\C=C\CO)OP(=O)(O)O` [fostriecin], in experiment [2], the “Inhibition of PP2A compared with PP4” value is listed as “nearly the same extent”.
In the case of `C=C/C(=C/C(=O)C[C@H](C)C[C@@H](C)CC[C@H](O)[C@H](C)C(=O)C[C@@H](O)[C@H](C)[C@@H](C)OC(=O)C[C@@H](O)C1=C(C)C(=O)OC1=O)CC` [TTN, Tautomycetin], the IC50 in experiment [3] was 41.2 ± 4.4 µM; in [4], greater than 50 µM; in experiment [5] it was greater than 50 µM; in experiment [7], 2.9 ± 0.2 µM; in experiment [10], 0.038 ± 0.009 nM; in [15] it was 14.6 ± 0.1 µM. In addition, the IC50 in experiment [16] was 17.5 ± 3.2 µM; in experiment [19], 20 ± 2 µM; in experiment [20] it was greater than 50 µM; in experiment [21], 0.0119 ± 5e-05 µM; in [22], 0.0053 ± 0.00026 µM; in experiment [26], greater than 50 µM. Besides, the results for the IC50 in experiment [27], in experiment [28] and in [29] were 0.0444 ± 0.0042 µM, 0.101 ± 0.007 µM and greater than 50 µM, respectively. The “Selectivity (potency) for PP1 versus any other PPP tested” value in [6] was > 100 fold and 100 fold. Also, in experiment [6] (PPPs other than PP2A and PP5), the “Fold higher IC50 than for PP1, the other PPPs tested” value is on record as > 10^3 fold. In addition, the “Fold change (relative to PP1)” value in experiment [8], in experiment [9], in experiment [12], in [13], in [14] and in experiment [16] (IC50 PP2B / IC50 PP1) was >10^5 fold each time. The “Fold change (relative to PP1)” value in [21] (IC50 PP5 / IC50 PP1, [32P]-phosphohistone) is 313 ^b fold; in [22] (IC50 PP2A / IC50 PP1, [32P]-phosphohistone), 139 ^b fold; in [23], >10^5 fold; in [24], >10^5 fold; in [25] it was >10^5 fold; in experiment [27] (IC50 PP4 / IC50 PP1), 1168 fold. The “Fold change (relative to PP1)” value was 2657 fold in [28] (IC50 PP6 / IC50 PP1) and >10^4 fold in experiment [30]. In addition, in [11], the “Time of covalent adduct formation with PP1” value is recorded as “less than 10 min”. The “Mode of inhibition (Lineweaver-Burk kinetic analysis)” value in experiment [17] is reported as “noncompetitive inhibition”; in experiment [18] (C127SPP1, Figure S6) it was “competitive inhibition”. The “Change of IC50 for C127SPP1 compared to WT PP1” value in [18] is roughly 10 fold.
Turning to `C=C1C(=O)N[C@H](C)C(=O)N[C@@H](CC(C)C)C(=O)N[C@@H](C(=O)O)[C@H](C)C(=O)N[C@@H](CCCNC(=N)N)C(=O)N[C@@H](/C=C/C(C)=C/[C@H](C)[C@H](Cc2ccccc2)OC)[C@H](C)C(=O)N[C@@H](C(=O)O)CCC(=O)N1C` [Microcystin-LR] (R[Adda][d(γGlu)][NMeDha][dA]L[dAsp(3S-Me)]-OH; lactam N-7), the “Change of IC50 for C127SPP1 compared to WT PP1” value in experiment [18] was “no difference”.

The term IC50 denotes the concentration that inhibits the measured activity by half.
